# Assays:
# [1] = system: male Wistar rats; experiment: Taste aversion study, drinking water; format: in vivo, rat; conditions: approximately 10 mg/kg/day in drinking water
# Method: A study was done to determine if there is aversion by animals to the taste of montbretin A dissolved in drinking water. Six (6) male Wistar rats weighing between 500-650 g were housed 2 rats per cage. Three hundred grams (300 g) of standard rat chow (Purnia) was placed in the food hopper of each cage daily. Food consumption per cage per day was determined every 24 hours for 3 days. A fluid volume of 900 ml of drinking water was placed on each cage daily. Fluid consumption per cage per day was determined every 24 hours for 3 days. Body weights of each animal were measured every 24 hours.
# Based on the preliminary drinking water values obtained, montbretin A was dissolved in the drinking water so as to deliver a dose of 10 mg/kg/day. Body weight and food consumption measurements were done as described above. A fluid volume of 250 ml of montbretin A solution at a concentration of 0.09 mg/ml was placed on each cage daily. Fluid consumption was measured every 24 hours for 3 days.
# The food and fluid consumption and body weights were analyzed. The dose of montbretin A was determined based on weight and consumption values. There was no effect of montbretin A dissolved in the drinking water on body weight, fluid intake or food intake and a dose of approximately 10 mg/kg was achieved.
# [2] = system: α-glucosidase (Brewers Yeast); experiment: Glycosidase specificity: α-glucosidase; format: biochemical; conditions: at 0.1 μM Montbretin A
# [3] = Stability in simulated gastric fluid (SGF) by UPLC; format: in vitro ADME; conditions: SGF pH 1.51, 37° C., 1 hour
# Method: The stability of montbretin A in both simulated intestinal fluid (SIF) and simulated gastric fluid (SGF) were analyzed via ultra performance liquid chromatography (UPLC). The instrument consisted of a Waters® Acquity™ UPLC system equipped with a PDA and a TQ detector in tandem. The 2 μL sample injection volume was passed through a Waters® Acquity™ BEH C18 column (1.7 μm, 2.1×100 mm), with mobile phases A and B consisting of water with 0.1% formic acid and acetonitrile with 0.1% formic acid, respectively. The mobile phases were delivered at a programmed linear gradient at a column temperature of 35° C. Linearity was evaluated using a set of montbretin A calibration standards with concentrations ranging from 10 to 100 μg/mL in water. […]
# To examine the gastrointestinal fluid activity, 0.5 mg/ml solutions of oleamide (positive control) in SGF or SIF were prepared by diluting a 100 μL aliquot of oleamide (50 mg/mL in 2-propanol) to 10 mL with either SGF or SIF and incubated in a 37° C. water bath for 1 or 3 hours, respectively. At time points of 1 or 3 hours, the sample was removed from the water bath and a 100 μL aliquot of the resulting solution was diluted to 1 mL with de-ionized water in a glass UPLC glass sample vial and analyzed by UPLC for oleamide content. […]
# [4] = biological target: T1, β-glucosidase (Agrobacterium sp.) (Agrobacterium sp., UniProt P12614); experiment: Glycosidase specificity: β-glucosidase; format: biochemical
# T1 sequence (P12614 1-459): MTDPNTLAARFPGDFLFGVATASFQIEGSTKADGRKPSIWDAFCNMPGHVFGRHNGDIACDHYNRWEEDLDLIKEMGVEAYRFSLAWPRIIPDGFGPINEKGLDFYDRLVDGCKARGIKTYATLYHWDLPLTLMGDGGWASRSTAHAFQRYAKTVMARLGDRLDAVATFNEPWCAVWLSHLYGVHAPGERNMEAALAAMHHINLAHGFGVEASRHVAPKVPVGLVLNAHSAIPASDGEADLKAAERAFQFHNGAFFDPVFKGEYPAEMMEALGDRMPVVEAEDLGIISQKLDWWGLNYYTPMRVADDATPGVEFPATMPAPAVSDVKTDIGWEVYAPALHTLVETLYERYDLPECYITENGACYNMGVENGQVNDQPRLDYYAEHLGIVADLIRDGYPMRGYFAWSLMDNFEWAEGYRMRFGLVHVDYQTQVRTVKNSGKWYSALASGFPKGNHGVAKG
# Description: The subsequent residue of montbretin A is also a β-linked glucose residue, however this residue bears a large 6-O-caffeic ester moiety and would therefore not be processed by Abg. […] Thus, the terminal glucosyl residue on the trisaccharide moiety is not required for α-amylase activity.
# [5] = system: β-hexosaminidase (Jack Bean); experiment: Glycosidase specificity: β-hexosaminidase; format: biochemical; conditions: at 0.1 μM Montbretin A
smiles,measurement,setting,value
"CC1O[C@@H](O[C@@H]2CO[C@@H](Oc3c(O)cc(-c4oc5cc(O)cc(O)c5c(=O)c4O[C@@H]4OC(C)[C@H](O)[C@H](O)C4O[C@@H]4OC(COC(=O)/C=C/c5ccc(O)c(O)c5)[C@@H](O)[C@@H](O)C4O[C@@H]4OC(CO)[C@@H](O)[C@@H](O)C4O)cc3O)C(O)[C@@H]2O)C(O)[C@@H](O)[C@H]1O (stereo partly shown) [Montbretin A, montbretin A]",effect on body weight,[1]; 3 days,no effect
same,effect on fluid intake,[1]; 3 days,no effect
same,effect on food intake,[1]; 3 days,no effect
same,side effects,[1]; duration of the trial,no overt indications of side effects
same,"RA (%), Residual Enzyme Activity",[2],97%
same,degradation or loss in SGF,[3],~10%
same,remaining activity at 0.1 µM,"[4]; at 0.1 μM Montbretin A, read-out: RA (%), Residual Enzyme Activity",100%
same,inhibition of β-glucosidase from Agrobacterium (Abg),[4]; extent of inhibition decreasing with time,time dependent inhibition
same,inhibition of Abg after pre-incubation,[4]; pre-incubation with Abg prior to addition of assay substrate,no inhibition
same,"RA (%), Residual Enzyme Activity",[5],99%
